Results on 19 compounds are retold here after patent US20070049593A1 (priority 2004, published 2007).

Molecules are shown by their SMILES. Where a name gives a salt, the structure may show the parent alone.

The target in this assay is T1, HCV polymerase (Hepatitis C virus genotype 1b, UniProt P26663).
T1 construct: a region encoding NS5B (J Virol 1991 March, 65(3), 1105-13, 544 amino acids after deletion of 47 amino acids on the C-terminal); 6xHis (C); made in house; host or cells: Escherichia coli
T1 sequence (P26663 2420-2963): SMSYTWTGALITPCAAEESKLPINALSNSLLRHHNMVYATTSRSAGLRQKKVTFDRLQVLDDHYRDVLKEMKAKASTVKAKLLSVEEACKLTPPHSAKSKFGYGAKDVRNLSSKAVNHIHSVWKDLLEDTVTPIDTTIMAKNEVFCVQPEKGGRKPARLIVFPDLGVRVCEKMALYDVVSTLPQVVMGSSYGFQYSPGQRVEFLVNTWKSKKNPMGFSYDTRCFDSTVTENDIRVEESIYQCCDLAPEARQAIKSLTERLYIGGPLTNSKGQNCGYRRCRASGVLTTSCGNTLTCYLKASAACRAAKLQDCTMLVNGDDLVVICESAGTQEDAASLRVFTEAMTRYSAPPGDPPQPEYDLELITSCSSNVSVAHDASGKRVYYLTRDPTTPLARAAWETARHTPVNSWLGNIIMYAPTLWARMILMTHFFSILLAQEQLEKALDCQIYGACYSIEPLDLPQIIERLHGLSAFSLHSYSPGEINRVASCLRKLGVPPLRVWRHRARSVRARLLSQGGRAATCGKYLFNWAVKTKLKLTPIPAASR
The assay can be described thus: biochemical. Further details: species or system HCV BK strain. The essentials:
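Recombinant HCV BK-strain NS5B (C-terminal 47 aa deleted, His6-tagged, E. coli), 0.5 μg/ml, run with 5 μg/ml in vitro-transcribed RNA template (polyU/3′X), ATP/GTP/CTP 50 μM, UTP 2 μM plus [3H]UTP, pH 7.5, 25° C, 90 min. TCA-precipitated RNA counted by scintillation; IC50 from activity with vs without compound.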
As a reminder, the IC50 is the concentration at which inhibition is half-maximal. `O=C(O)c1ccc2c(C3CCCCC3)c3n(c2c1)CC(=O)N(CC(=O)N1CCOCC1)c1ccccc1-3` [Example 1-210, 13-cyclohexyl-5-[2-(morpholin-4-yl)-2-oxoethyl]-6-oxo-6,7-dihydro-5H-benzo[5,6][1,4]diazepino[7,1-a]indole-10-carboxylic acid]: the IC50 is less than 100 nM.

`O=C(O)c1ccc2c(C3CCCCC3)c3n(c2c1)CCN(CCN1CCCCC1)c1cc(OCc2ccccc2)ccc1-3` [Example 1-211, 3-benzyloxy-13-cyclohexyl-5-[2-(piperidin-1-yl)ethyl]-6,7-dihydro-5H-benzo[5,6][1,4]diazepino[7,1-a]indole-10-carboxylic acid dihydrochloride] yielded a half-maximal inhibitory concentration (IC50) of less than 100 nM.

Take `CC(C)N(C)CCN1CCn2c(c(C3CCCCC3)c3ccc(C(=O)O)cc32)-c2ccccc21` [Example 1-212, 13-cyclohexyl-5-[2-(N-isopropyl-N-methylamino)ethyl]-6,7-dihydro-5H-benzo[5,6][1,4]diazepino[7,1-a]indole-10-carboxylic acid dihydrochloride]: the IC50 is less than 100 nM.

For the compound `CC1CCCCN1CCN1CCn2c(c(C3CCCCC3)c3ccc(C(=O)O)cc32)-c2ccc(Cl)cc21` (stereo not shown) [Example 1-213, 3-chloro-13-cyclohexyl-5-[2-(2-methylpiperidin-1-yl)ethyl]-6,7-dihydro-5H-benzo[5,6][1,4]diazepino[7,1-a]indole-10-carboxylic acid dihydrochloride], the half-maximal inhibitory concentration (IC50) was less than 100 nM.

Compound `CC1CCCN(CCN2CCn3c(c(C4CCCCC4)c4ccc(C(=O)O)cc43)-c3ccc(Cl)cc32)C1` (stereo not shown) [Example 1-214, 3-chloro-13-cyclohexyl-5-[2-(3-methylpiperidin-1-yl)ethyl]-6,7-dihydro-5H-benzo[5,6][1,4]diazepino[7,1-a]indole-10-carboxylic acid dihydrochloride] displayed an IC50 of less than 100 nM.

Consider `CC1CCN(CCN2CCn3c(c(C4CCCCC4)c4ccc(C(=O)O)cc43)-c3ccc(Cl)cc32)CC1` [Example 1-215, 3-chloro-13-cyclohexyl-5-[2-(4-methylpiperidin-1-yl)ethyl]-6,7-dihydro-5H-benzo[5,6][1,4]diazepino[7,1-a]indole-10-carboxylic acid dihydrochloride], for which the half-maximal inhibitory concentration (IC50) is less than 100 nM.

`O=C(O)c1ccc2c(C3CCCCC3)c3n(c2c1)CCN(CCN1CCCC1)c1cc(Cl)ccc1-3` [Example 1-216, 3-chloro-13-cyclohexyl-5-[2-(pyrrolidin-1-yl)ethyl]-6,7-dihydro-5H-benzo[5,6][1,4]diazepino[7,1-a]indole-10-carboxylic acid dihydrochloride] returned a half-inhibitory concentration (IC50) of less than 100 nM.

With `O=C(O)c1ccc2c(C3CCCCC3)c3n(c2c1)CCN(CCN1CCCCCC1)c1cc(Cl)ccc1-3` [Example 1-217, 5-[2-(azepan-1-yl)ethyl]-3-chloro-13-cyclohexyl-6,7-dihydro-5H-benzo[5,6][1,4]diazepino[7,1-a]indole-10-carboxylic acid dihydrochloride], the IC50 is less than 100 nM.

As for `Cc1ccc2c(c1)N(CCN1CCCCCC1)CCn1c-2c(C2CCCCC2)c2ccc(C(=O)O)cc21` [Example 1-218, 5-[2-(azepan-1-yl)ethyl]-13-cyclohexyl-3-methyl-6,7-dihydro-5H-benzo[5,6][1,4]diazepino[7,1-a]indole-10-carboxylic acid dihydrochloride], the 50% inhibitory concentration (IC50) is less than 100 nM.

`O=C(O)c1ccc2c(C3CCCCC3)c3n(c2c1)CCN(CCC1CCCNC1)c1cc(Cl)ccc1-3` (stereo not shown) [Example 1-219, 3-chloro-13-cyclohexyl-5-[2-(piperidin-3-yl)ethyl]-6,7-dihydro-5H-benzo[5,6][1,4]diazepino[7,1-a]indole-10-carboxylic acid dihydrochloride] registered a 50% inhibitory concentration (IC50) of less than 100 nM.

The compound `CC1COCCN1CCN1CCn2c(c(C3CCCCC3)c3ccc(C(=O)O)cc32)-c2ccccc21` (stereo not shown) [Example 1-220, 13-cyclohexyl-5-[2-(3-methylmorpholin-4-yl)ethyl]-6,7-dihydro-5H-benzo[5,6][1,4]diazepino[7,1-a]indole-10-carboxylic acid dihydrochloride] came in with a concentration for half-maximal inhibition (IC50) of less than 100 nM.

As for `CN1CCCC(CCN2CCn3c(c(C4CCCCC4)c4ccc(C(=O)O)cc43)-c3ccc(Cl)cc32)C1` (stereo not shown) [Example 1-221, 3-chloro-13-cyclohexyl-5-[2-(1-methylpiperidin-3-yl)ethyl]-6,7-dihydro-5H-benzo[5,6][1,4]diazepino[7,1-a]indole-10-carboxylic acid dihydrochloride], the half-maximal inhibitory concentration (IC50) is less than 100 nM.

Compound `CN(C)CCN(C)C(=O)CN1CCn2c(c(C3CCCCC3)c3ccc(C(=O)O)cc32)-c2ccccc21` [Example 1-222, 13-cyclohexyl-5-{[N-(2-dimethylaminoethyl)-N-methylcarbamoyl]methyl}-6,7-dihydro-5H-benzo[5,6][1,4]diazepino[7,1-a]indole-10-carboxylic acid dihydrochloride] gave a half-maximal inhibitory concentration (IC50) of less than 100 nM.

Regarding `CN(C)CCN(C)CCN1CCn2c(c(C3CCCCC3)c3ccc(C(=O)O)cc32)-c2ccccc21` [Example 1-223, 13-cyclohexyl-5-{2-[N-(2-dimethylaminoethyl)-N-methylamino]ethyl}-6,7-dihydro-5H-benzo[5,6][1,4]diazepino[7,1-a]indole-10-carboxylic acid trihydrochloride], the IC50 is less than 100 nM.

As for `CCS(=O)(=O)N1CCN(CCN2CCn3c(c(C4CCCCC4)c4ccc(C(=O)O)cc43)-c3ccccc32)CC1` [Example 1-224, 13-cyclohexyl-5-[2-(4-ethanesulfonylpiperazin-1-yl)ethyl]-6,7-dihydro-5H-benzo[5,6][1,4]diazepino[7,1-a]indole-10-carboxylic acid dihydrochloride], the IC50 is less than 100 nM.

In turn, `CCC(=O)N1CCN(CCN2CCn3c(c(C4CCCCC4)c4ccc(C(=O)O)cc43)-c3ccccc32)CC1` [Example 1-225, 13-cyclohexyl-5-[2-(4-propionylpiperazin-1-yl)ethyl]-6,7-dihydro-5H-benzo[5,6][1,4]diazepino[7,1-a]indole-10-carboxylic acid dihydrochloride] showed a half-inhibitory concentration (IC50) of less than 100 nM.

For the compound `CC(C)OC(=O)N1CCN(CCN2CCn3c(c(C4CCCCC4)c4ccc(C(=O)O)cc43)-c3ccccc32)CC1` [Example 1-226, 13-cyclohexyl-5-[2-(4-isopropoxycarbonylpiperazin-1-yl)ethyl]-6,7-dihydro-5H-benzo[5,6][1,4]diazepino[7,1-a]indole-10-carboxylic acid dihydrochloride], the 50% inhibitory concentration (IC50) was less than 100 nM.

The compound `CC(C)Oc1ccc2c(c1)N(CCN1CCCCC1)CCn1c-2c(C2CCCCC2)c2ccc(C(=O)O)cc21` [Example 1-227, 13-cyclohexyl-3-isopropoxy-5-[2-(piperidin-1-yl)ethyl]-6,7-dihydro-5H-benzo[5,6][1,4]diazepino[7,1-a]indole-10-carboxylic acid dihydrochloride] had an IC50 of less than 100 nM.

`CN(C)CCN1CCn2c(c(C3CCCCC3)c3ccc(C(=O)O)cc32)-c2ccc(OCc3ccccc3)cc21` [Example 1-228, 3-benzyloxy-13-cyclohexyl-5-(2-dimethylaminoethyl)-6,7-dihydro-5H-benzo[5,6][1,4]diazepino[7,1-a]indole-10-carboxylic acid dihydrochloride] had an IC50 of less than 100 nM.
